Source: patent publication US20210134398A1, “Combinatorial Chemistry Computational System and Enhanced Selection Method” (Southern Methodist University, priority 2019, published 2021)
Entries after “also recorded” stand apart in the source; their conditions may differ. Where two headings read alike, the source gives them in different places.

What was measured:
[1] = target: T1, Cysteineless Mouse MDR3 P-glycoprotein (Mus musculus, UniProt P21447, C1070A/C1121A/C1223A/C133A/C427A/C638A/C669A/C713A/C952A); experiment: ATPase activity assay (basal and verapamil-stimulated), purified P-gp in mixed micelles; format: biochemical; conditions: for Effect on stimulated ATPase / Stimulated ATPase: in the presence of verapamil; for Stimulated ATPase / Basal ATPase: ± standard deviation; for Effect on basal ATPase / Basal ATPase: no added transport substrate
T1 construct: made in house; host or cells: Pichia pastoris
T1 sequence (P21447 whole entry C133A/C427A/C638A/C669A/C713A/C952A/C1070A/C1121A/C1223A): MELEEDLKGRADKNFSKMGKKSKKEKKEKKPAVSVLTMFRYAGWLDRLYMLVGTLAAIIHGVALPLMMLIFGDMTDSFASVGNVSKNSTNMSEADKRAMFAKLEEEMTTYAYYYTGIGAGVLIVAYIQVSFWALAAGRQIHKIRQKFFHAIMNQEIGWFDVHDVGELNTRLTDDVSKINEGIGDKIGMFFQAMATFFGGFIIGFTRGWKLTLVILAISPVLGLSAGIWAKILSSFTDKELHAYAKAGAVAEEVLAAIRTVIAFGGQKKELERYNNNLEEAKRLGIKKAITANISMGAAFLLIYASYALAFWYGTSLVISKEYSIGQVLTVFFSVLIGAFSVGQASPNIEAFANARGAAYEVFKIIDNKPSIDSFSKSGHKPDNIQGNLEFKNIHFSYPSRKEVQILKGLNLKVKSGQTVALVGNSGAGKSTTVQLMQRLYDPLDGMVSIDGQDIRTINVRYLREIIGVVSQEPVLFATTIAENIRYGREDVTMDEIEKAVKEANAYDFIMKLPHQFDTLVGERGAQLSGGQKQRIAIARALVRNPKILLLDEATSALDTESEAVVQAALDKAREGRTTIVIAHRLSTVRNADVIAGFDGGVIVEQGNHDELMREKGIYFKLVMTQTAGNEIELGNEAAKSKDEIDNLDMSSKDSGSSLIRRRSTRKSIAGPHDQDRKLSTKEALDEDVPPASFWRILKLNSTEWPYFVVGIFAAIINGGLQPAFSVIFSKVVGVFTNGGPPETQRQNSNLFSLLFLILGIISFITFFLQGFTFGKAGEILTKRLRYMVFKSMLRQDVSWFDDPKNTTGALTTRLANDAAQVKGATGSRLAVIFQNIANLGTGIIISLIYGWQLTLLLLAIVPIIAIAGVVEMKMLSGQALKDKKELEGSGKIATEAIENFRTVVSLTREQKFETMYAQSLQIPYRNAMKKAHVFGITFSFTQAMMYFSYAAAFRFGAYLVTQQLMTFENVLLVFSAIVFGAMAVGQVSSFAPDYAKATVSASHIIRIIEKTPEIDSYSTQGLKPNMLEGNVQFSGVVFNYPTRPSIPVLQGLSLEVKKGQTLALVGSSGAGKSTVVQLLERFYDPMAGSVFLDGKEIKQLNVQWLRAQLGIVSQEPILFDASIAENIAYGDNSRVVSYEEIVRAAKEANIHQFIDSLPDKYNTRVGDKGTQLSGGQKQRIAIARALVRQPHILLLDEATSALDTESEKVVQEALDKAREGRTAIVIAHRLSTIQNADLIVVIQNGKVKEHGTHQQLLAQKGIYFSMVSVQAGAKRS
Method: Evaluation of mode of inhibition of P-glycoprotein by Group 1 and Group 2 variants of compound 29. To assess the mode of inhibition of P-gp by the novel variants of P-gp inhibitor 29, ATP hydrolysis by P-gp was evaluated in the presence or absence of the variants. […] Murine P-gp (MDR3) expressed in Pichia pastoris that had all naturally occurring cysteines replaced with alanine, was used^45, 46. It is widely assumed that the ATP hydrolytic rate of P-gp is stimulated in the presence of transport substrates when compared to ATP hydrolysis in the absence of transport substrates. Assays comparing these rates can therefore be useful not only in identifying inhibitors of P-gp catalyzed ATP hydrolysis, but also to potentially infer whether a compound might be a transport substrate if basal ATPase rates are stimulated by the addition of a compound.
P-glycoprotein Purification. Cysteine-less MDR3 and the human normal MDR1 P-glycoprotein was recombinantly expressed in the yeast Pichia pastoris essentially as in^45, 46 and used for assaying ATP hydrolysis and ATP binding to the protein in the presence of the 29-variants. Purification of the protein was performed as described^49 with small modifications resulting in highly enriched P-gp in mixed micelles containing dodecyl maltoside (DDM) and lysophosphatidyl choline^26.
ATPase Activity Assays. ATP hydrolysis activity was measured using a coupled enzyme assay^72 as modified in reference^26.

[2] = test system: P-gp overexpressing prostate cancer cell line, DU145TXR; experiment: MTT cell viability assay, resensitization to paclitaxel; format: cell-based, human; conditions: for Fold vs PTX + 29: vs paclitaxel + parental compound 29; for Fold vs PTX (fold increased sensitivity): vs paclitaxel alone; for Resensitization of DU145TXR to paclitaxel / MDR reversal (in words): 3 to 10 μM inhibitor
Method in brief: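 DU145TXR cells were seeded for 24 h, then exposed for 48 h to paclitaxel alone or with P-gp inhibitor at 3, 5, 7 or 10 μM. Viability was read by MTT (4 h, A570) against DMSO-treated cells. Paclitaxel IC50 came from four-parameter fits, and fold sensitization was calculated from those IC50s.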

[3] = target: P-gp (P-gp over-expressing cell line, DU145TXR) (Homo sapiens, UniProt P08183); experiment: Cellular accumulation of experimental compounds by LC-MS/MS with and without tariquidar
Sequence of P-gp (P-gp over-expressing cell line, DU145TXR) (P08183 whole entry): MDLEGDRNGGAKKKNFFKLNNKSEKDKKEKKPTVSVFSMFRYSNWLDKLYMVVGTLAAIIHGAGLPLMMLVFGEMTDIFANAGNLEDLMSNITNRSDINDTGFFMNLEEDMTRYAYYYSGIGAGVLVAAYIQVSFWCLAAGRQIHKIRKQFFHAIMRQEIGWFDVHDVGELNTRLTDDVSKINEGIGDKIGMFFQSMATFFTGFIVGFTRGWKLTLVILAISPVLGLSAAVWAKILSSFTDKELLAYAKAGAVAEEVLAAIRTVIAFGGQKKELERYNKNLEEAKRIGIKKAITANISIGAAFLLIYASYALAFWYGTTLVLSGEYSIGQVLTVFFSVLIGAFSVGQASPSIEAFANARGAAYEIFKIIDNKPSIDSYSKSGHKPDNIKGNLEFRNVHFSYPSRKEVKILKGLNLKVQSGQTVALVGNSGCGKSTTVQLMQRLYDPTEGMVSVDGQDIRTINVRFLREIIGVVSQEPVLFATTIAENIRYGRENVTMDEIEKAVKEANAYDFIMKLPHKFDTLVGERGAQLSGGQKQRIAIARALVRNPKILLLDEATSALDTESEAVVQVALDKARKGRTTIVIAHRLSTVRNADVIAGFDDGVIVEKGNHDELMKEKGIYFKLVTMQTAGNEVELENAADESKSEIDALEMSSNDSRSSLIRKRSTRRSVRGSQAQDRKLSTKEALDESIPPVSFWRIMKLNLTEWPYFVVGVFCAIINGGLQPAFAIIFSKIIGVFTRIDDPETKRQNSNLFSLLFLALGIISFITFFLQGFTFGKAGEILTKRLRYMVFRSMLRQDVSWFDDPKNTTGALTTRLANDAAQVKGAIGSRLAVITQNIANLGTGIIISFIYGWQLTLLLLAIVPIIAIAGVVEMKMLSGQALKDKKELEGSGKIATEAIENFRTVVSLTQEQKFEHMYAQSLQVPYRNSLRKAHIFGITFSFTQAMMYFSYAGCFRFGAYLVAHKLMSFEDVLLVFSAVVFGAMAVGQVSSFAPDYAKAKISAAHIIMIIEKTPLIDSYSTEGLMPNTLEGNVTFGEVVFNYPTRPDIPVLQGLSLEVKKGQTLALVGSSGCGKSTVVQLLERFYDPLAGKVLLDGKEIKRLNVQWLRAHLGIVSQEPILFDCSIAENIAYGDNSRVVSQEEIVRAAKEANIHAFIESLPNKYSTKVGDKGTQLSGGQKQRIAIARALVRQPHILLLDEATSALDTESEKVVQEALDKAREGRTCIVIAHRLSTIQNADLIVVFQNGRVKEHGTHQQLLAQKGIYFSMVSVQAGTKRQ
Method in brief: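 Accumulation of each compound in P-gp-overexpressing DU145TXR cells was quantified by LC-MS/MS. Values are the ratio of cellular amount with the P-gp inhibitor tariquidar to the amount without it, as an index of P-gp transport.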

## Cc1cc(C)c(-c2cc(NC(=O)CSCC(=O)N3c4ccccc4CCc4ccccc43)n(-c3ccccc3)n2)cc1C [29-227, 2-[(2-{2-azatricyclo[9.4.0.0]pentadeca-1(11),3(8},4,6,12,14-hexaen-2-yl)-2-oxoethyl)sulfanyl]-N-[1-phenyl-3-(2,4,5-trimethylphenyl)-1H-pyrazol-5-yl]acetamide]
[1]; listed as 227
  Effect on stimulated ATPase: inhibited activity similar to parental compound 29; also recorded: inhibited verapamil-stimulated ATPase activity
  Effect on basal ATPase: did not significantly affect; also recorded: did not activate
[1]; listed as SMU29-227
  Effect on stimulated ATPase: inhibitor
  Effect on basal ATPase: none
[1]
  Stimulated ATPase: 50 ± 2 % of DMSO
  Basal ATPase: 88 ± 4 % of DMSO
[2]; 3 μM inhibitor, listed as 227
  Fold vs PTX + 29: 3.8 fold
[2]; 3 μM inhibitor
  Fold vs PTX (fold increased sensitivity): 13 fold
[2]; 5 μM inhibitor
  Fold vs PTX + 29: 3.7 fold
  Fold vs PTX (fold increased sensitivity): 41 fold
[2]; 7 μM inhibitor
  Fold vs PTX + 29: 10 fold
  Fold vs PTX (fold increased sensitivity): 353 fold
[2]; 10 μM inhibitor
  Fold vs PTX + 29: 5 fold
  Fold vs PTX (fold increased sensitivity): 530 fold
[2]; listed as 227
  Resensitization of DU145TXR to paclitaxel / MDR reversal (in words): re-sensitized; also recorded: more effective than 29 at all concentrations tested
[3]
  Cellular accumulation: ratio of plus Tariquidar over no Tariquidar: 1.0

## Cc1cc(C)c(-c2cc(NC(=O)CSCC(=O)NC34CC5CC(CC(C5)C3)C4)n(-c3ccccc3)n2)cc1C [29-278, 2-({[(adamantan-1-yl)carbamoyl]methyl}sulfanyl)-N-[1-phenyl-3-(2,4,5-trimethylphenyl)-1H-pyrazol-5-yl]acetamide]
[1]; listed as 278
  Effect on stimulated ATPase: inhibited verapamil-stimulated ATPase activity
  Effect on basal ATPase: inhibited
[1]; listed as SMU29-278
  Effect on stimulated ATPase: inhibitor
  Effect on basal ATPase: inhibitor
[1]
  Stimulated ATPase: 41 ± 7 % of DMSO
  Basal ATPase: 78 ± 4 % of DMSO
[2]; listed as 278
  Resensitization of DU145TXR to paclitaxel / MDR reversal (in words): affected MDR relatively weakly
[3]; human
  Cellular accumulation: ratio of plus Tariquidar over no Tariquidar: 1.0
